Experimental data as given in patent publication US20160115446A1, “Technologies, Methods, and Products of Small Molecule Directed Tissue and Organ Regeneration from Human Pluripotent Stem Cells” (SAN DIEGO REGENERATIVE MEDICINE INSTITUTE, priority 2014, published 2016).

System: undifferentiated hESCs
Assay: Cardiac induction of undifferentiated hESCs in defined culture by NAM (marker immunostaining, beating cardiomyocytes)
Format: cell-based, human
Text: (b) Cardiac fate switch direct of the pluripotent state of hESCs induced by nicotinamide. NAM-induced Oct-4-negative cells began to express the cardiac specific transcription factor (Csx) Nkx2.5 (green) and alpha-actinin (red), consistent with early cardiac differentiation. […] All cells are indicated by DAPI staining of their nuclei (blue). Insets at the top better visualize individual cells at higher-magnification.
(Stage 1—Human Cardiomesodermal Cells) (FIGS. 1; 2a, b). Increased intensity of Nkx2.5 was usually observed in areas of the colonies where cells began to pile up (FIG. 2b). These differentiating hESCs then formed cardioblasts that uniformly expressed Nkx2.5 in suspension (Stage 2—Human Cardiac Precursor Cells) (FIGS. 1; 3a). […] (FIGS. 1, 3b). Cells within the beating cardiospheres expressed markers characteristic of cardiomyocytes (FIG. 3b). The cardiomyocytes can retain their strong contractility for over 3 months. Electrical profiles of the cardiomyocytes confirmed their contractions to be strong rhythmic impulses reminiscent of the p-QRS-T-complexes seen from body surface electrodes in clinical electrocardiograms (FIG. 3c). Cardiac specific transcription factor (Csx) Nkx2.5 is an evolutionally conserved homeobox transcription factor indispensable for normal cardiac development. The onset and pattern of early Nkx2.5 expression roughly coincide with the timing and area of cardiac specification, and Nkx2.5 gene continues to be expressed through development in the heart. Expression of Nkx2.5 is the earliest marker for heart precursor cells in all vertebrates so far examined and is essential for proper cardiac septation and formation/maturation of electrical conduction system.

NC(=O)c1cccnc1 [NAM, nicotinamide]
expression of cardiac-specific transcription factor Csx/Nkx2.5 (NAM 10 mM, defined culture): began expressing the earliest marker for heart precursor, Csx/Nkx2.5
expression of pluripotence-associated markers (e.g., Oct-4) (NAM 10 mM, defined culture, all the cells within the colony): down-regulated the expression of pluripotence-associated markers
appearance of beating cardiomyocytes (cardioblasts attached, further NAM treatment, after withdrawal of NAM, vs untreated control): drastic increase in efficiency
